Measured values reported in patent US20090214529A9, “KINESIN INHIBITORS” (TaiGen Biotechnology Co., Ltd., priority 2007, published 2009).

These compounds were tested on tumor cell (assay: Cytotoxicity assay (MTS)). Settings: 72 h; incubation for three days; read-out: IC50, tumor cell growth inhibition (MTS).
Format: cell-based
Method: The efficacy of a test compound in inhibiting tumor cell growth was analyzed using a MTS assay. The MTS assay is a calorimetric method for the determination of viable cells in proliferation by using a tetrazolium compound (3-(4,5-dimethylthiazol-2-yl)-5-(3-[…])-2-(4-sulfophenyl)-2H-tetrazolium, inner salt; MTS) and an electron-coupling agent (phenazine methosulfate; PMS). The MTS reagent is converted by dehydrogenase enzymes in metabolically active cells into a formazan that is soluble in a tissue culture medium.
In this assay, tumor cell suspensions (30 μl/well) were seeded into 384-well flat-bottomed tissue culture plates at an appropriate density overnight. A fresh medium (3 μl/well) containing varying concentrations of a test compound or vehicle was added to the culture followed by incubation for three days. At the end of the incubation, all plates were processed simultaneously as follows: The culture medium was aspirated, a MTS cell proliferation assay (Promega) solution (30 μl/well) was added, and the plates were incubated at 37° C. for about 2 hours. Absorbance (a parameter proportional to the cell mass) was measured at 490 nm using a Multiskan (Thermo Electron Corporation, Waltham, Mass.). Inhibition effects were expressed as corrected T/C values for each test compound according to the following equation:
T/C=(T−Blank)/(C−Blank)×100(%),
where T is the mean absorbance of the treated cells, C is the mean absorbance of the controls, and Blank is the mean absorbance of the cell free well.
`Cc1ccc(C(=O)N(CCN)C(c2nc3c(oc4ccc(Cl)cc43)c(=O)n2Cc2cc(Br)co2)C(C)C)cc1` (stereo not shown) [Compound 99] gave an IC50 of under 30 µM. Work on `Cc1ccc(C(=O)N(CCCN)C(c2nc3cc4[nH]c(Br)cc4cc3c(=O)n2Cc2cccs2)C(C)C)cc1` (stereo not shown) [Compound 1] yielded an IC50 of under 30 µM. `Cc1ccc(C(=O)N(CCN)C(c2nc3c(oc4ccc(Cl)cc43)c(=O)n2Cc2ccc(C(F)(F)F)o2)C(C)C)cc1` (stereo not shown) [Compound 101] was tested, and the IC50 was under 30 µM. `CCCC(c1nc2c(oc3ccccc32)c(=O)n1Cc1ccccc1)N(CCN)C(=O)c1ccc(C)cc1` (stereo not shown) [Compound 51] gave an IC50 of under 30 µM. Compound `Cc1ccc(C(=O)N(CCCN)C(c2nc3c(oc4ccccc43)c(=O)n2Cc2ccccc2F)C(C)C)cc1` (stereo not shown) [Compound 27] has an IC50 of under 30 µM. `Cc1ccc(C(=O)N(CCN)[C@@H](c2nc3c(oc4ccc(F)cc43)c(=O)n2Cc2cccc(F)c2)C(C)C)cc1F` [Compound 188] gave an IC50 of under 30 µM. Compound `Cc1ccc(C(=O)N(CCN)C(c2nc3c(oc4ccc(Cl)cc43)c(=O)n2Cc2ccco2)C(C)C)cc1` (stereo not shown) [Compound 125] has an IC50 of under 30 µM. For `Cc1ccc(C(=O)N(CCCN)[C@@H](c2nc3c(oc4ccccc43)c(=O)n2Cc2ccccc2)C(C)C)cc1` [Compound 175], the IC50 was under 30 µM. For `Cc1ccc(C(=O)N(CCN)C(c2nc3c(oc4ccccc43)c(=O)n2Cc2ccc(Cl)s2)C(C)C)cc1` (stereo not shown) [Compound 160], the IC50 was under 30 µM. Work on `CCC(c1nc2c(oc3ccccc32)c(=O)n1Cc1ccccc1)N(CCN)C(=O)c1ccc(C)cc1` (stereo not shown) [Compound 21] yielded an IC50 of under 30 µM. `Cc1ccc(C(=O)N(CCN)C(c2nc3c(oc4cccc(F)c43)c(=O)n2Cc2ccccc2)C(C)C)cc1` (stereo not shown) [Compound 60] showed an IC50 of under 30 µM. `Cc1ccc(C(=O)N(CCCN)C(c2nc3c(oc4ccc(Cl)cc43)c(=O)n2Cc2ccc(C#N)s2)C(C)C)cc1` (stereo not shown) [Compound 47] gave an IC50 of under 30 µM. With `Cc1csc(Cn2c([C@@H](C(C)C)N(CCN)C(=O)c3ccc(Cl)cc3)nc3c(oc4ccc(F)cc43)c2=O)c1` [Compound 181] the IC50 was under 30 µM. In the case of `CCN(CC)C(=O)c1ccc(Cn2c(C(C(C)C)N(CCN)C(=O)c3ccc(C)cc3)nc3c(oc4ccc(F)cc43)c2=O)s1` (stereo not shown) [Compound 117], the IC50 is reported as under 30 µM. `Cc1ccc(C(=O)N(CCCN)C(c2nc3c(oc4ccc(Br)cc43)c(=O)n2Cc2ccccc2)C(C)C)cc1` (stereo not shown) [Compound 38] was tested, and the IC50 was under 30 µM. `Cc1ccc(C(=O)N(NCCN)C(c2nc3c(sc4ccccc43)c(=O)n2Cc2ccc(Br)s2)C(C)C)cc1` (stereo not shown) [Compound 149] was tested, and the IC50 was under 30 µM. `CCNC(=O)c1ccc(Cn2c(C(C(C)C)N(CCN)C(=O)c3ccc(C)cc3)nc3c(oc4ccc(F)cc43)c2=O)s1` (stereo not shown) [Compound 116] gave an IC50 of under 30 µM. In the case of `Cc1ccc(C(=O)N(CCN)C(c2nc3c(oc4cc(Cl)ccc43)c(=O)n2Cc2ccccc2)C(C)C)cc1` (stereo not shown) [Compound 107], the IC50 is reported as under 30 µM. Compound `CC(C)[C@H](c1nc2c(oc3ccc(F)cc32)c(=O)n1Cc1ccccc1)N(CCN)C(=O)c1ccc(Br)cc1` [Compound 205] has an IC50 of under 30 µM. For `Cc1ccc(C(=O)N(CCN)C(c2nc3c(oc4ccc(F)cc43)c(=O)n2Cc2ccoc2)C(C)C)cc1` (stereo not shown) [Compound 128], the IC50 was under 30 µM. `CCC(c1nc2c(oc3ccccc32)c(=O)n1Cc1ccccc1)N(CCCCN(C)C)C(=O)c1ccc(Br)cc1` (stereo not shown) [Compound 24] gave an IC50 of under 30 µM. `CC(C)[C@H](c1nc2c(oc3ccc(F)cc32)c(=O)n1Cc1ccsc1)N(CCN)C(=O)c1ccc(Br)cc1` [Compound 202] was tested, and the IC50 was under 30 µM. In the case of `Cc1ccc(C(=O)N(CCN)[C@@H](c2nc3c(oc4ccc(F)cc43)c(=O)n2Cc2cc(C#N)cs2)C(C)C)cc1` [Compound 178], the IC50 is reported as under 30 µM. With `Cc1ccc(C(=O)N(CCCN)C(c2nc3cc4ccccc4cc3c(=O)n2Cc2ccccc2)C(C)C)cc1` (stereo not shown) [Compound 3] the IC50 was under 30 µM. `Cc1ccc(Cn2c(C(C(C)C)N(CCN)C(=O)c3ccc(C)cc3)nc3c(oc4ccc(F)cc43)c2=O)cc1` (stereo not shown) [Compound 123] showed an IC50 of under 30 µM. With `Cc1ccc(C(=O)N(CCCN)C(c2nc3c(oc4ccccc43)c(=O)n2Cc2ccccc2)C(C)C)cc1` (stereo not shown) [Compound 13] the IC50 was under 30 µM. Compound `Cc1ccc(C(=O)N(CCN)C(c2nc3c(oc4cc(F)ccc43)c(=O)n2Cc2ccc(Cl)s2)C(C)C)cc1` (stereo not shown) [Compound 110] has an IC50 of under 30 µM. With `Cc1ccc(C(=O)N(CCN)C(c2nc3c(oc4ccc(F)cc43)c(=O)n2Cc2ccc(C(=O)NC(C)C)o2)C(C)C)cc1` (stereo not shown) [Compound 119] the IC50 was under 30 µM. In the case of `Cc1ccc(C(=O)N(CCN)C(c2nc3c(oc4ccccc43)c(=O)n2Cc2cc(C)cs2)C(C)C)cc1` (stereo not shown) [Compound 161], the IC50 is reported as under 30 µM. `Cc1ccc(C(=O)N(CCCN)C(c2nc3c(oc4ccc(Cl)cc43)c(=O)n2Cc2cccs2)C(C)C)cc1` (stereo not shown) [Compound 43] gave an IC50 of under 30 µM. In the case of `Cc1ccc(C(=O)N(CCN)[C@@H](c2nc3c(oc4ccc(F)cc43)c(=O)n2Cc2ccsc2)C(C)C)cc1` [Compound 194], the IC50 is reported as under 30 µM. For `Cc1ccc(C(=O)N(NCCN)C(c2nc3c(oc4ccccc43)c(=O)n2Cc2ccccc2)C(C)C)cc1` (stereo not shown) [Compound 26], the IC50 was under 30 µM. `CC(C)C(c1nc2c(oc3ccc(F)cc32)c(=O)n1Cc1ccc(Cl)o1)N(CCN)C(=O)c1ccc(C(F)(F)F)cc1` (stereo not shown) [Compound 171] gave an IC50 of under 30 µM. In the case of `CC(C)[C@H](c1nc2c(oc3ccc(F)cc32)c(=O)n1Cc1ccoc1)N(CCN)C(=O)c1ccc(Cl)cc1` [Compound 198], the IC50 is reported as under 30 µM. `CC(C)C(c1nc2n(c(=O)c1Cc1ccccc1)Cc1ccccc1-2)N(CCCN)C(=O)c1ccc(Cl)cc1` (stereo not shown) [Compound 151] was tested, and the IC50 was under 30 µM. Work on `Cc1ccc(C(=O)N(CCCN)C(c2nc3c(oc4ccc(Cl)cc43)c(=O)n2Cc2ccc(Cl)s2)C(C)C)cc1` (stereo not shown) [Compound 45] yielded an IC50 of under 30 µM. `Cc1ccc(C(=O)N(CCCN)C(c2nc3c(oc4ccccc43)c(=O)n2Cc2ccc(Br)s2)C(C)C)cc1` (stereo not shown) [Compound 14] showed an IC50 of under 30 µM. Work on `Cc1ccc(C(=O)N(CCCN)C(c2nc3c(Br)c4ccccc4cc3c(=O)n2Cc2ccc(Cl)s2)C(C)C)cc1` (stereo not shown) [Compound 6] yielded an IC50 of under 30 µM. In the case of `Cc1ccc(C(=O)N(CCN)[C@@H](c2nc3c(oc4ccc(F)cc43)c(=O)n2Cc2ccc(Br)o2)C2CC2)cc1` [Compound 223], the IC50 is reported as under 30 µM. `Cc1ccc(C(=O)N(CCN)C(c2nc3c(oc4ccc(Cl)cc43)c(=O)n2Cc2ccsc2)C(C)C)cc1` (stereo not shown) [Compound 77] was tested, and the IC50 was under 30 µM. `Cc1ccc(C(=O)N(CCCN)C(c2nc3c(oc4ccc(F)cc43)c(=O)n2Cc2ccc(C(F)(F)F)o2)C(C)C)cc1` (stereo not shown) [Compound 87] was tested, and the IC50 was under 30 µM. `CCC(c1nc2c(oc3ccc(Cl)cc32)c(=O)n1Cc1ccccc1)N(CCCN)C(=O)c1ccc(C)cc1` (stereo not shown) [Compound 31] showed an IC50 of under 30 µM. `CCC(c1nc2c(oc3ccc(Cl)cc32)c(=O)n1Cc1ccccc1)N(CCN)S(=O)(=O)c1ccc(C)cc1` (stereo not shown) [Compound 34] gave an IC50 of under 30 µM. Compound `CC(C)[C@H](c1nc2c(oc3ccc(F)cc32)c(=O)n1Cc1ccccc1)N(CCN)C(=O)c1ccc(C(F)(F)F)cc1` [Compound 207] has an IC50 of under 30 µM. `Cc1ccc(C(=O)N(CCN)C(c2nc3c(oc4ccc(Cl)cc43)c(=O)n2Cc2ccoc2)C(C)C)cc1` (stereo not shown) [Compound 126] showed an IC50 of under 30 µM. With `Cc1ccc(C(=O)N(CCCN)C(c2nc3c(oc4ccc(F)cc43)c(=O)n2Cc2cccs2)C(C)C)cc1` (stereo not shown) [Compound 74] the IC50 was under 30 µM. For `CC(C)C(c1nc2c(sc3ccccc32)c(=O)n1Cc1ccc(Cl)s1)N(CCCN)C(=O)c1ccc(Br)cc1` (stereo not shown) [Compound 141], the IC50 was under 30 µM. Work on `Cc1ccc(C(=O)N(CCCN)C(c2nc3c(C#N)c4ccccc4cc3c(=O)n2Cc2ccc(Cl)s2)C(C)C)cc1` (stereo not shown) [Compound 8] yielded an IC50 of under 30 µM. `Cc1ccc(C(=O)N(CCCN)C(c2nc3c(sc4ncccc43)c(=O)n2Cc2ccccc2)C(C)C)cc1` (stereo not shown) [Compound 156] gave an IC50 of under 30 µM. In the case of `Cc1ccc(C(=O)N(CCCN)C(c2nc3c(oc4ccccc43)c(=O)n2Cc2ccccc2O)C(C)C)cc1` (stereo not shown) [Compound 29], the IC50 is reported as under 30 µM. Compound `Cc1ccc(C(=O)N(CCN)[C@@H](c2nc3c(oc4ccc(F)cc43)c(=O)n2Cc2cc(C)cs2)C2CC2)cc1` [Compound 222] has an IC50 of under 30 µM. With `Cc1ccc(C(=O)N(CCCN)C(c2nc3n(c(=O)c2Cc2ccccc2)Cc2ccccc2-3)C(C)C)cc1F` (stereo not shown) [Compound 152] the IC50 was under 30 µM. With `Cc1ccc(C(=O)N(CCCN)C(c2nc3nc4ccccc4nc3c(=O)n2Cc2ccccc2)C(C)C)cc1` (stereo not shown) [Compound 10] the IC50 was under 30 µM. With `Cc1ccc(C(=O)N(CCCN)C(c2nc3c(oc4ccc(F)cc43)c(=O)n2Cc2ccccc2)C(C)C)cc1` (stereo not shown) [Compound 63] the IC50 was under 30 µM. In the case of `Cc1ccc(C(=O)N(CCCN)C(c2nc3c(oc4ccc(F)cc43)c(=O)n2Cc2ccc(C#N)s2)C(C)C)cc1` (stereo not shown) [Compound 72], the IC50 is reported as under 30 µM. In the case of `Cc1ccc(C(=O)N(CCCN)C(c2nc3c(oc4ccc(Cl)cc43)c(=O)n2Cc2cc(C)cs2)C(C)C)cc1` (stereo not shown) [Compound 95], the IC50 is reported as under 30 µM. With `Cc1ccc(C(=O)N(CCN)[C@@H](c2nc3c(oc4ccc(F)cc43)c(=O)n2Cc2ccc(Br)s2)C(C)C)cc1` [Compound 183] the IC50 was under 30 µM. With `Cc1ccc(C(=O)N(CCCN)C(c2nc3c(I)c4ccccc4cc3c(=O)n2Cc2ccccc2)C(C)C)cc1` (stereo not shown) [Compound 9] the IC50 was under 30 µM. `Cc1ccc(C(=O)N(CCCN)C(c2nc3c(sc4ccccc43)c(=O)n2Cc2ccc(Cl)s2)C(C)C)cc1F` (stereo not shown) [Compound 142] showed an IC50 of under 30 µM. `Cc1ccc(C(=O)N(CCN)C(c2nc3c(oc4ccc(F)cc43)c(=O)n2Cc2cc(C#N)cs2)C(C)C)cc1` (stereo not shown) [Compound 112] was tested, and the IC50 was under 30 µM. Work on `CCCC(c1nc2c(oc3ccccc32)c(=O)n1Cc1ccccc1)N(CC(O)CN)C(=O)c1ccc(C)cc1` (stereo not shown) [Compound 58] yielded an IC50 of under 30 µM.
